Target: SUMOylation activating enzyme subunit 1 (SAE1) (Homo sapiens, UniProt Q9UBE0)
Assay: MST with RED-NHS-labeled purified SAE1
Assay type: binding

Sequence of SUMOylation activating enzyme subunit 1 (SAE1) (Q9UBE0 whole entry): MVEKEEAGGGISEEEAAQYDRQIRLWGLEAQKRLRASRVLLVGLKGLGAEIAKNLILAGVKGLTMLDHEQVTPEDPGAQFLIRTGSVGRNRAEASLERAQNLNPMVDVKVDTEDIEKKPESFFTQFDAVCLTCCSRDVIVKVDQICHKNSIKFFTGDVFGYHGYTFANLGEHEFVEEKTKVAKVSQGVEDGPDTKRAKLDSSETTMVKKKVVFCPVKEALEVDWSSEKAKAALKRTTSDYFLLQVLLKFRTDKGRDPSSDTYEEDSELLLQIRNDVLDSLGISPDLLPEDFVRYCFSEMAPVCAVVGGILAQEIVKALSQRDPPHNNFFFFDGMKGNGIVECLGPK

## COc1cc2c(c(OC)c1OC)-c1ccc(OC)c(=O)cc1[C@@H](NC(C)=O)CC2 [COL, colchicine]
  Kd: 2560 nM
